Consider seven sequences from patent US12378287B2 (priority 2019, dated 2025).

One assay deals with GII.17 VLP. The assay is classed as binding, norovirus. The note with it: 100 μM peptide on SA chip; for pKd: GII.17 VLP 1, 0.1, 0.01, 0.001 mg/mL, KD calculated from ka and kd; for ka / kd: GII.17 VLP; for ka: association 90 sec; for kd: dissociation 60 sec. The method, then:
(§1) The apparatus used was BLItz™ (manufactured by ForteBio). The tip of SA chip (manufactured by ForteBio) was kept in contact with purified water for 1 minute for hydration and was then kept in contact with a 1% BSA aqueous solution for 1 hour for blocking. The SA chip subjected to blocking treatment was set to the measuring unit of the BLItz™ main body, and measurement was performed according to the program shown in Table 16. The peptides of SEQ ID NOs: 103, 167, 205, 263, 283, 288, and 302 were used, and the concentration was adjusted to 100 μM. The concentrations of each of the GII.3 and GII.17 VLPs were adjusted to 1, 0.1, 0.01, and 0.001 mg/mL. The measurement data were analyzed using the attached software, and the KD value was calculated based on the Ka and Kd values.

In the next assay the target is GII.3 VLP. In kind it is binding, norovirus. The note with it: 100 μM peptide on SA chip; for pKd: GII.3 VLP 1, 0.1, 0.01, 0.001 mg/mL, KD calculated from ka and kd; for ka / kd: GII.3 VLP; for ka: association 90 sec; for kd: dissociation 60 sec. The method, then: as §1

pKd: −log10 of the molar value.

As a reminder, the pKd is the negative decadic logarithm of the Kd, by convention in mol/L. As for FVWRRRAGLY [No.167], at GII.17 VLP, the negative logarithm of the Kd (pKd) was 9.16, the “ka” value is 1.59e+06 M⁻¹ s⁻¹ and the “kd” value came out at 0.00111 s⁻¹. Besides, at GII.3 VLP, the pKd is 8.86, the “ka” value was found to be 3.14e+06 M⁻¹ s⁻¹ and the “kd” value amounted to 0.00435 s⁻¹.

With RSMSLHVSMT [No.283], on GII.17 VLP, the pKd was 8.86, the “ka” value turned out to be 994000 M⁻¹ s⁻¹ and the “kd” value is 0.000138 s⁻¹. In addition, on GII.3 VLP, the pKd is 9.04, the “ka” value amounted to 7.86e+06 M⁻¹ s⁻¹ and the “kd” value is 0.00715 s⁻¹.

With ANYRWSRSIK [No.263], on GII.17 VLP, the pKd is 7.72, the “ka” value worked out at 140000 M⁻¹ s⁻¹ and the “kd” value stood at 0.00865 s⁻¹. Further, on GII.3 VLP, the pKd was 7.24, the “ka” value is 851000 M⁻¹ s⁻¹ and the “kd” value amounted to 0.049 s⁻¹.

For the sequence VWWGRRISRF [No.302], at GII.17 VLP, the pKd is 7.55, the “ka” value is 2.28e+06 M⁻¹ s⁻¹ and the “kd” value was 0.0648 s⁻¹.

Turning to CKARSARGVS [No.288], on GII.17 VLP, the negative-log Kd (pKd) was 7.92, the “ka” value is 620000 M⁻¹ s⁻¹ and the “kd” value stood at 0.00747 s⁻¹. On GII.3 VLP, the pKd is 8.16, the “ka” value is 2.09e+06 M⁻¹ s⁻¹ and the “kd” value is 0.0143 s⁻¹.

As to RFLVPVVKVM [No.103], at GII.17 VLP, the negative logarithm of the Kd (pKd) is 8.09, the “ka” value was 1.38e+06 M⁻¹ s⁻¹ and the “kd” value was 0.0112 s⁻¹. Also, at GII.3 VLP, the pKd is 8.09, the “ka” value came to 2.1e+06 M⁻¹ s⁻¹ and the “kd” value is 0.017 s⁻¹.

Turning to FVWSRRTGLY [No.205], on GII.17 VLP, the pKd was 6.96, the “ka” value is 169000 M⁻¹ s⁻¹ and the “kd” value was determined as 0.0184 s⁻¹. In addition, at GII.3 VLP, the pKd is 7.50, the “ka” value was 1.03e+06 M⁻¹ s⁻¹ and the “kd” value was 0.001 s⁻¹.
